In patent US20140120060A1, “TREATMENT OF RHEUMATOID ARTHRITIS AND ASTHMA USING PI3 KINASE INHIBITORS” (INFINITY PHARMACEUTICALS, INC., priority 2012, published 2014):
Converted amounts (≈) assume the structure as drawn. “And” between values parts separate entries of the source, which are not always exact repeats. Identical values can stand only once. “Also recorded” adds a separate entry of the source. Like-named read-outs stand apart in the source and are kept apart here.

How the values were obtained:
PG-PS model of arthritis = test: Rat mono-articular PG-PS model; assay type: in vivo
Description: Animals are initially randomized into groups based on body weight but any with no ankle swelling following priming are eliminated from the groups to be reactivated. 10/group are retained into the primary treatment groups. The remaining animals are the baseline controls (Group 1).
Rats that have ankle inflammation are allowed to recover for two weeks, and then the swelling is reactivated (day 0) by a tail vein injection of 0.5 ml of 0.4 mg/ml PG-PS. Treatment with the test compounds is given QD the day prior to reactivation on day 0 and then daily.
Animals have caliper measures and paw volumes taken of ankles on day −3 (prior to reactivation on day 0 in the AM) and then on days 1, 2, 3, 4 (2 hrs post-dose) to determine if any anti-inflammatory effects are present in treated rats.
Scoring of Joints: PGPS ankles or knees are given scores of 0-5 for inflammation and bone resorption according to the following criteria: […]

[1] = Pharmacokinetics in Sprague-Dawley rats; assay type: in vivo, rat
PBMCs = test: R848 induced cytokine production in PBMCs; assay type: cell-based, human
Description: (§1) These experiments were conducted using PBMCs.

[2] = system: ovalbumin-induced pulmonary inflammation; test: Rat ovalbumin allergic asthma model
TLR9 = test: CPG-A induced cytokine production in PBMCs; assay type: cell-based, human
Description: Human PBMCs were stimulated with CPG-A. CPG-A selectively activates PDCs, inducing IFN-α production via TLR9. IFN-α is a PDC cell selective readout. Primary human PBMCs from two normal human donors were used as a source of PDC cells. 200 K cells per well were used. […] Then the cells were treated with the specified concentration of CPG-A for 16 hours. RPMI-5% serum was employed.
as §1

PI3K δ = PI3K δ (Homo sapiens, UniProt O00329); test: In vitro PI3K δ inhibition (lipid kinase assay, TLC or HTRF); conditions: selectivity
B cell = B cell proliferation; assay type: cell-based
DTH ear swelling = test: Murine model of delayed type hypersensitivity (DNFB); assay type: in vivo
Description: The animals were subsequently challenged with DNFB on the pinna of the ear on day 5 to initiate an inflammatory reaction that was measured 24 hours later.

PI3K-β = target: T1, PI3K-β (Homo sapiens, UniProt P42338); test: PI3K-β specific assay in platelets (thrombin peptide, activated GPIIb/IIIa); assay type: cell-based
T1 construct: from tissue; host or cells: platelets in whole blood

Murine B-cell = Murine B-cell proliferation; assay type: cell-based; conditions: Mus musculus
[3] = Embryo/fetal developmental toxicity study in rabbits; conditions: female, rabbit, in vivo; pregnant rabbits, last day of dosing, 75 mg/kg/day; read-out: mean AUC0-24 hr at the NOAEL
[4] = system: ovalbumin-induced lung inflammation; test: Ovalbumin-induced murine model of asthma
[5] = system: hemodynamic and electrocardiographic parameters; test: Cardiovascular study in instrumented cynomolgus monkey; assay type: in vivo
Source text: Four non-naive, male monkeys implanted with radiotelemetry transmitters were utilized during the conduct of this study.

[6] = system: developing or established type II collagen arthritis; test: Rat collagen-induced arthritis model, alone or in combination with methotrexate or etanercept; assay type: in vivo; conditions: 2.5, 5 or 50 mg/kg daily oral, alone or in combination with MTX or etanercept
Description: Treatment was administered either alone or in combination with the reference compounds MTX, or etanercept. All rats were administered MTX, vehicle 2 (1% CMC in water), or vehicle 1 on days 0-20 in order to keep dose manipulations consistent for all groups. Animals were terminated on day 21. Efficacy evaluation was based on daily ankle caliper measurements, ankle diameter expressed as area under the curve (AUC), and terminal hind paw weights.

hERG channel current = hERG channel current (Homo sapiens, UniProt Q12809); test: In vitro hERG assay; assay type: cell-based
TL2/TLR6 = test: PAM2CSK4 induced cytokine production in PBMCs; assay type: cell-based, human
Description: as §1
PAM2CSK4 signals through TL2/TLR6, which plays a role in atherosclerosis, colitis, ischemic injury, e.g., cardiac events and stroke.

[7] = Plasma protein binding, rat plasma; assay type: in vitro ADME; conditions: 100 μM (41700 ng/mL)
Source text: (§2) […]. […] […].

[8] = 13-week repeat-dose safety study in rats; conditions: both sexes, in vivo, oral; rat, Day 91, combined sexes, 25 mg/kg/day; read-out: mean AUC0-24 hr at the NOAEL
Description: The no observed adverse effect level (NOAEL) in the 13-week rat study was 25 mg/kg/day (150 mg/m^2/day) and the NOAEL in the 13-week monkey study was 5 mg/kg/day (60 mg/m^2/day). On Day 91, the mean AUC0-24 hr values for combined sexes at the NOAELs were 14150 ng*h/mL in the rat, and 4015 ng*h/mL in the monkey.

[9] = Plasma protein binding, human plasma; assay type: in vitro ADME
Source text: as §2

[10] = Pharmacokinetics in BALB/c mice; assay type: in vivo, mouse

Chain of hERG channel current (Q12809 whole entry): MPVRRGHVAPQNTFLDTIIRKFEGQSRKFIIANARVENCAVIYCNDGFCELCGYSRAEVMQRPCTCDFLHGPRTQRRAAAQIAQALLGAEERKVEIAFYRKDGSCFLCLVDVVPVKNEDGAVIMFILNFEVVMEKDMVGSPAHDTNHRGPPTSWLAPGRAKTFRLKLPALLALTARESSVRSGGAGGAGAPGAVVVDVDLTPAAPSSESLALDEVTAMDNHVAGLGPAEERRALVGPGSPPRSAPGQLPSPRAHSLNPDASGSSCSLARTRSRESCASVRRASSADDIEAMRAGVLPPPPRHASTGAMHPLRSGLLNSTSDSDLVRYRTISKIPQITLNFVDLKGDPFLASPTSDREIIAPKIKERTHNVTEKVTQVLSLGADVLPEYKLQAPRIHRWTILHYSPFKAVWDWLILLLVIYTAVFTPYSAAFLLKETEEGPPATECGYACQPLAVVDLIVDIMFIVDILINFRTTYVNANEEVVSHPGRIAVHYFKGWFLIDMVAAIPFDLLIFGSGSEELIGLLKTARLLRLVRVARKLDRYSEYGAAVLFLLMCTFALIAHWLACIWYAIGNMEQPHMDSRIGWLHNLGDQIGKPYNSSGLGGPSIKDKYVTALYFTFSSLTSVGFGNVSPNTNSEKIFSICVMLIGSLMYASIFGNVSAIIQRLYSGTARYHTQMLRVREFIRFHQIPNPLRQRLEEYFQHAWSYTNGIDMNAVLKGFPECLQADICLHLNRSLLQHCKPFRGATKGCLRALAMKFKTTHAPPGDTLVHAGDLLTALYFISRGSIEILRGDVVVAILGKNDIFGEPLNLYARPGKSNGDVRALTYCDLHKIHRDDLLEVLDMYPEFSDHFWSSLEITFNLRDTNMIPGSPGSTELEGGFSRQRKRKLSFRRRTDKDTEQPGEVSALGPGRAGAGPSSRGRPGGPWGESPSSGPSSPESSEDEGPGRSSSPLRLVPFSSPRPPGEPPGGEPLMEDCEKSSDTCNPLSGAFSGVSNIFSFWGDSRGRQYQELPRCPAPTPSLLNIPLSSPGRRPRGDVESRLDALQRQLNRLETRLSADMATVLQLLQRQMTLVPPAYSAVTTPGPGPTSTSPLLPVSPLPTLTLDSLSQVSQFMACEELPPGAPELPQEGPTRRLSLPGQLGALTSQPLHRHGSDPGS
Chain of PI3K δ (O00329 whole entry): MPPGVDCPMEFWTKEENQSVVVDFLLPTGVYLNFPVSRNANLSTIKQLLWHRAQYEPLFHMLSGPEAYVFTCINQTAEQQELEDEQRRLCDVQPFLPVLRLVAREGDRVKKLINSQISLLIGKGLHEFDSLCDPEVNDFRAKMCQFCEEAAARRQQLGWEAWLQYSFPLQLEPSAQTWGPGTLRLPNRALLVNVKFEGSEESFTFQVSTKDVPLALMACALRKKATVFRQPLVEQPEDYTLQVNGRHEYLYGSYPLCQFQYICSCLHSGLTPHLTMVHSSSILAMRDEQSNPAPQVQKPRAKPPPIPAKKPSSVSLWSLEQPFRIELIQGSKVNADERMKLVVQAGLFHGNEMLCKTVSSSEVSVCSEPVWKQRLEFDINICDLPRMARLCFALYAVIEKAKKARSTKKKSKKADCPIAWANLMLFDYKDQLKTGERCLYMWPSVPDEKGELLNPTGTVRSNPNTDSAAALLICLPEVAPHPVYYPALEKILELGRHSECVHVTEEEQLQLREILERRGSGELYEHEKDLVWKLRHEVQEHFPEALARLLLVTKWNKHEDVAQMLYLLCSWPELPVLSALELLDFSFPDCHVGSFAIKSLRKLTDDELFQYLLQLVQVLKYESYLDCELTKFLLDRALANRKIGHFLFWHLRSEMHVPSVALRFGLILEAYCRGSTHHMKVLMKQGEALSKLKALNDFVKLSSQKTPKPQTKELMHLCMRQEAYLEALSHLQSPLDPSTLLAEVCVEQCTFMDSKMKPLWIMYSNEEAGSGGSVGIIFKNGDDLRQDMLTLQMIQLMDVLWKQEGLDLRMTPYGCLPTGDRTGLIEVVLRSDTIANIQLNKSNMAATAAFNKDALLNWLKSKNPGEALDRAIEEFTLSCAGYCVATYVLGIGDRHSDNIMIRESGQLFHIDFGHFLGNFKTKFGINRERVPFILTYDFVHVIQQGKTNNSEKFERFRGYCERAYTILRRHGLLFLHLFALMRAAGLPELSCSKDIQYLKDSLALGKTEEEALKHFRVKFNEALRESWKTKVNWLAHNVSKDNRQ
Chain of PI3K δ (P27986 whole entry partner): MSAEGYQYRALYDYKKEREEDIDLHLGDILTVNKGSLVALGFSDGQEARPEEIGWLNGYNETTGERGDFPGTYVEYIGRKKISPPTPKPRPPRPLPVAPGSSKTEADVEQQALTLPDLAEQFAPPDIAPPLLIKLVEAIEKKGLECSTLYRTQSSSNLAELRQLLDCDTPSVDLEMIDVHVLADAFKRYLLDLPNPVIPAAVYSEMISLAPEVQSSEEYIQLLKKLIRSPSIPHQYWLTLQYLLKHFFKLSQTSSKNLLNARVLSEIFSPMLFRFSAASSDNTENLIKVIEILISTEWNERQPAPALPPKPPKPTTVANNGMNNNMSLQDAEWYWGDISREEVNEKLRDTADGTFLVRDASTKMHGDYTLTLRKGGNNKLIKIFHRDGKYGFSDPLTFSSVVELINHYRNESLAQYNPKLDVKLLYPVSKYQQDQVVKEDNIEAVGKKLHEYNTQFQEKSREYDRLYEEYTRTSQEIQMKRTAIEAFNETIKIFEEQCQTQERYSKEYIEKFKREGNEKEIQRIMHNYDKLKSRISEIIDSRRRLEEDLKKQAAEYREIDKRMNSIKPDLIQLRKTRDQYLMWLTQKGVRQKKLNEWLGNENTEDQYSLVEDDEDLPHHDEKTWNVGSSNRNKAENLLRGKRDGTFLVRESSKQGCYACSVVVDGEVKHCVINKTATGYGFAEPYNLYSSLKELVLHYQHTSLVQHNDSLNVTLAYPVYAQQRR
T1 sequence (P42338 whole entry): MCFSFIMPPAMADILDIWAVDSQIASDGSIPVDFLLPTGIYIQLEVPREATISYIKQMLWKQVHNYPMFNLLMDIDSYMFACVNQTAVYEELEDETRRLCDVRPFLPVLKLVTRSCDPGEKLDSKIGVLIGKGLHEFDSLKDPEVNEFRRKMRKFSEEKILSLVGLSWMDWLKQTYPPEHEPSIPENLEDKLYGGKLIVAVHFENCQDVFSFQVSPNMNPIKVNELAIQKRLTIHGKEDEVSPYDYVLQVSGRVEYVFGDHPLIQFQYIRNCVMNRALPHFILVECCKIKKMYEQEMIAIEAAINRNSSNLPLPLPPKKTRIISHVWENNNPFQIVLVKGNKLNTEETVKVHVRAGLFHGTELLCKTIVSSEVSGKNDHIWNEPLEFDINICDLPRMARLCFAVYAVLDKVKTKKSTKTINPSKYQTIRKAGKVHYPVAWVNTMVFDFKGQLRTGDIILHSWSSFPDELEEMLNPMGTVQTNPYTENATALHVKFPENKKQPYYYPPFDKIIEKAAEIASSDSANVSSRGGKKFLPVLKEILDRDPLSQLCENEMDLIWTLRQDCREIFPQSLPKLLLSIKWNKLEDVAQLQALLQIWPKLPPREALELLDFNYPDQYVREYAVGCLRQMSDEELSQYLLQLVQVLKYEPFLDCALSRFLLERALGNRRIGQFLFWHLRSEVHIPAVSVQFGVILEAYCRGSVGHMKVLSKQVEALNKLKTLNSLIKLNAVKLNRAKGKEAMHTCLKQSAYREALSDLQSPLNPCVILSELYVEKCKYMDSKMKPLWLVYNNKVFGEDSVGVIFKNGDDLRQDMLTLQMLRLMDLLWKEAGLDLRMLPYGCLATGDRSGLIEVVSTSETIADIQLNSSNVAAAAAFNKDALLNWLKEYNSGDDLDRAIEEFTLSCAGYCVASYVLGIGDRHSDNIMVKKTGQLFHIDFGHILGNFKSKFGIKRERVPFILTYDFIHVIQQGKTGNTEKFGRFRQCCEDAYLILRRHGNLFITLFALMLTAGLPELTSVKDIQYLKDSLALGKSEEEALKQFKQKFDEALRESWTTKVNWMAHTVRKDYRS
T1 sequence (P27986 whole entry partner): as the sequence (P27986 whole entry partner) above

**Q.** Which results are given for C[C@H](Nc1ncnc2[nH]cnc12)c1cc2cccc(Cl)c2c(=O)n1-c1ccccc1 [Compound 292]?
**A.** inflammation when reactivated with PG-PS (PG-PS model of arthritis; FIG. 14A): dose-dependently controlled inflammation; joint pathology in PG-PS model (PG-PS model of arthritis; FIG. 14B): dose-dependently improved joint pathology; Foral ([1]; Sprague-Dawley rats, PO 10 mg/kg suspension): 57%; half-life ([1]; Sprague-Dawley, rat, in vivo, intravenous, 2 mg/kg): < 2 h; R848 induced IFN-α (PBMCs): did not detectably affect; R848 induced IL-1 (PBMCs): slightly inhibited; R848 induced IL-6 (PBMCs): did not detectably affect; R848 induced IL-8 (PBMCs): did not detectably affect; R848 induced TNF-α (PBMCs): did not detectably affect; levels of TNF-α, KC/GRO, IL-13 and IL-5 in the BAL ([2]; 10 mg/kg PO): inhibited; also recorded: significantly suppressed; neutrophils and eosinophils in the BAL ([2]; 1 and 10 mg/kg PO, 48 hours after re-challenge): significantly reduced; leukocyte migration into the bronchoalveolar space ([2]; FIG. 16): inhibited; CPG-A induced IL-6 production (TLR9; PBMCs): Inhibited; CPG-A induced IL-8 production (TLR9; PBMCs): Inhibited; CPG-A induced TNF-α production (TLR9; PBMCs): Inhibited; CPG-A induced IFN-α production (TLR9; human PBMCs): potently inhibited; also recorded: blocked; lower dose inhibiting PI3K-δ compared to PI3K-γ, PI3K-β or PI3K-α (PI3K δ): at least 10 fold; EC50 (B cell): < 100 nM; ear swelling (DTH ear swelling; 0.3, 1, 3 and 10 mg/kg PO): Dose dependent inhibition; inhibition of ear swelling vs vehicle control (DTH ear swelling; highest dose group (10 mg/kg PO, 30 minutes prior to DNFB challenge)): approximately 50%; window between PI3K-γ and PI3K-β inhibition in whole blood (PI3K-β): about 4 fold; EC50 (Murine B-cell): 0.5 nM; AUC(0-t) [3]: 66200 ng·h/mL; leukocyte migration into the bronchoalveolar space ([4]; FIG. 15): inhibited; eosinophil influx into the airway space (BAL fluid) ([4]; all doses tested, 0.03 to 10 mg/kg PO): significantly blocked; lymphocyte and monocyte accumulation in BAL fluid ([4]; ovalbumin induced): reduced; hemodynamic or electrocardiographic parameters ([5]; male cynomolgus monkeys, single oral dose of 5, 30 and 150 mg/kg): No Compound 292-related effects; waveform abnormalities or arrhythmias ([5]; up to 150 mg/kg): no waveform abnormalities or arrhythmias; effects on parameters of developing and established type II collagen arthritis [6]: beneficial effects; tolerability [6]: well tolerated; Hill coefficient (hERG) (hERG channel current): 1.3; IC50 on hERG potassium current (hERG channel current): 20.8 µg/mL (≈ 49.9 µM); PAM2CSK4 induced IL-1 production (TL2/TLR6): Inhibited; PAM2CSK4 induced IL-6 production (TL2/TLR6): Inhibited; PAM2CSK4 induced IL-8 production (TL2/TLR6): Inhibited; PAM2CSK4 induced TNF-α production (TL2/TLR6): Inhibited; protein bound in rat plasma [7]: 85.8%; AUC(0-t) [8]: 14200 ng·h/mL; protein bound in human plasma [9]: 95%; protein bound in human plasma ([9]; 100 μM (41700 ng/mL)): 85.9%; Foral ([10]; BALB/c mice, PO 10 mg/kg suspension, calculated using AUC0-last): 7% and 7^i %; half-life ([10]; BALB/c, mouse, in vivo, iv, 10 mg/kg): < 2 h
